Assay results from ChEMBL document CHEMBL2311349, “Evidence for a new binding mode to GSK-3: allosteric regulation by the marine compound palinurin” (Eur J Med Chem, 2013).
Blank lines part the entries; values can stand above or below the molecule they belong to. The source made the active and inactive calls. No cut-off for these calls is given here.

What was measured:
[1] = target: T1, Glycogen synthase kinase-3 beta (Homo sapiens, UniProt P49841); assay: Inhibition of human recombinant GSK-3beta using GS2 peptide as substrate and [gamma33P]-ATP at 50 uM after 30 mins by scintillation counting
Target sequence in this assay (P49841 whole entry, looked up): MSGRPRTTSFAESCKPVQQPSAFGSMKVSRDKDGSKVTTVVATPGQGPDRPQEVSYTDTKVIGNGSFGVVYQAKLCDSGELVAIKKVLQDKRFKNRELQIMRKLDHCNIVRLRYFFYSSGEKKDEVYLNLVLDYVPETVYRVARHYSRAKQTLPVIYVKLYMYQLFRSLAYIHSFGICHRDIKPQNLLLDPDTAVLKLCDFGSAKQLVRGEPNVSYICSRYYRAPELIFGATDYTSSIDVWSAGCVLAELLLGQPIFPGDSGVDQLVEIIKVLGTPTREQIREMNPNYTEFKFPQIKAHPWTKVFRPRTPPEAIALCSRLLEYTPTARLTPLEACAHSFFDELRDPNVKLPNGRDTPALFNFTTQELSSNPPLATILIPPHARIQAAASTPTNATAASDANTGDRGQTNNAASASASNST

[2] = target: T1, Glycogen synthase kinase-3 beta; assay: Inhibition of human recombinant GSK-3beta using GS2 peptide as substrate and [gamma33P]-ATP after 30 mins by scintillation counting
Target sequence in this assay (P49841 whole entry): as the sequence (P49841 whole entry, looked up) above

[3] = target: T1, Glycogen synthase kinase-3 beta; settings: SH-SY5Y, 15 to 200 uM
Target sequence in this assay (P49841 whole entry, looked up): as above
Description: Inhibition of GSK-3beta in human SH-SY5Y cells assessed as reduction of tau phosphorylation at 15 to 200 uM after 18 hrs by ELISA sandwich method

Casein kinase II [4] = target: Casein kinase II (Homo sapiens, UniProt P19784+P67870+P68400); assay: (§1) Inhibition of human recombinant CK2 using GS2 peptide as substrate and [gamma33P]-ATP after 30 mins by scintillation counting; type: protein-complex assay
Casein kinase II [5] = target: Casein kinase II (Homo sapiens, UniProt P67870+P68400+P19784); assay: as §1; type: protein-complex assay
[6] = Inhibition of human recombinant MAPK using […] as substrate and [gamma33P]-ATP after 15 mins by scintillation counting
[7] = target: Cyclin-dependent kinase 1 (Homo sapiens, UniProt P06493); assay: Inhibition of human recombinant CDK1 using histone H1 as substrate and [gamma33P]-ATP after 15 mins by scintillation counting
[8] = target: Cyclin-dependent kinase 5 (Homo sapiens, UniProt Q00535); assay: Inhibition of human recombinant CDK5 using histone H1 as substrate and [gamma33P]-ATP after 20 mins by scintillation counting
[9] = target: Glycogen synthase kinase-3 alpha (Homo sapiens, UniProt P49840); assay: Inhibition of human recombinant GSK-3alpha using GS2 peptide as substrate and [gamma33P]-ATP after 12 mins by scintillation counting
[10] = Cytotoxicity against human SH-SY5Y cells assessed as intracellular LDH level after 18 hrs; type: cell-based

Chain of Cyclin-dependent kinase 1 (P06493 whole entry): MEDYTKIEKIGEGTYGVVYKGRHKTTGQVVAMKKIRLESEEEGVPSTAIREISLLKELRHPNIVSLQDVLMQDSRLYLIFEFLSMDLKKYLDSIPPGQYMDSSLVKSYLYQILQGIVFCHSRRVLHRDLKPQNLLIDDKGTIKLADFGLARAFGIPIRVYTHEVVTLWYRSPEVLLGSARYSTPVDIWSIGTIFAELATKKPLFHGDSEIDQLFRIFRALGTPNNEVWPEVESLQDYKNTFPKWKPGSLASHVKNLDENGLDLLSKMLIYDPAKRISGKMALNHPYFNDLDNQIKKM
Chain of Cyclin-dependent kinase 5 (Q00535 whole entry): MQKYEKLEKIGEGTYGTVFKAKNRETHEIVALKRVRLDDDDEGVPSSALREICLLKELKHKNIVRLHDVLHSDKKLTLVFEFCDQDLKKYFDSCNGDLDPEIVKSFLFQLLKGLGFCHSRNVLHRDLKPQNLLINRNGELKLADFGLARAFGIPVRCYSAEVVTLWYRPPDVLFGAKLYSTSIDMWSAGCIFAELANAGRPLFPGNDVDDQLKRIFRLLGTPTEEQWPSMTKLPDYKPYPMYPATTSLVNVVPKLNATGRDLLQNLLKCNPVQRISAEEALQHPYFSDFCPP
Chain of Glycogen synthase kinase-3 alpha (P49840 whole entry): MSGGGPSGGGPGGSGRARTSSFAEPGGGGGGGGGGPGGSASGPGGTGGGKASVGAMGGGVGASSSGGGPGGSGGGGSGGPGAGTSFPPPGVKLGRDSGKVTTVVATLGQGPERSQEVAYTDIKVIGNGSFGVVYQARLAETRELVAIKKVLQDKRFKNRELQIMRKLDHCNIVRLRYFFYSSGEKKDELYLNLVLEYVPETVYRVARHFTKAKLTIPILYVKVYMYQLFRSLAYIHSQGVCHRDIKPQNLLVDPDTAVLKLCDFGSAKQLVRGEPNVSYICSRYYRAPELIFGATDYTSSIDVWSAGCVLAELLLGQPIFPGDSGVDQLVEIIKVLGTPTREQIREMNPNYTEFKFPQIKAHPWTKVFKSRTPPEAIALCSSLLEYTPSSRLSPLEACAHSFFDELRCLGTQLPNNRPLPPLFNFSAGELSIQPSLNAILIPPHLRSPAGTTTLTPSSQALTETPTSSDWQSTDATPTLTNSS
Chain of Casein kinase II (Homo sapiens, UniProt P67870+P68400+P19784) (P67870 whole entry): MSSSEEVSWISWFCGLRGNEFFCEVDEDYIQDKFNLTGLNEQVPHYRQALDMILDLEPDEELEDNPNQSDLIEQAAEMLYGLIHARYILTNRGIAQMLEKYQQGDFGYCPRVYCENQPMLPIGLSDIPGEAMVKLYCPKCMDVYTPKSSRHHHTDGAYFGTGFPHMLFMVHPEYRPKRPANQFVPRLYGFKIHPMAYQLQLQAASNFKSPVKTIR
Chain of Casein kinase II (Homo sapiens, UniProt P67870+P68400+P19784) (P68400 whole entry): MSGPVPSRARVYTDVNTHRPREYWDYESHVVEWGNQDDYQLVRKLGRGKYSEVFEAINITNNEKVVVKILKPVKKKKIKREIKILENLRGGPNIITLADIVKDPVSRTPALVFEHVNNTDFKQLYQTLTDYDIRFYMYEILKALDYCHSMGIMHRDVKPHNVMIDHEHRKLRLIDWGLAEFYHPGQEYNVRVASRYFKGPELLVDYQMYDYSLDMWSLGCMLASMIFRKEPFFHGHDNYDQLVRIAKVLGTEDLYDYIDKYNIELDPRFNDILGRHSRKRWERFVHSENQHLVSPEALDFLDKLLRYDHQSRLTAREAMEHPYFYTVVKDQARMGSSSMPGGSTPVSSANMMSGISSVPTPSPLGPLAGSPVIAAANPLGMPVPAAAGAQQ
Chain of Casein kinase II (Homo sapiens, UniProt P67870+P68400+P19784) (P19784 whole entry): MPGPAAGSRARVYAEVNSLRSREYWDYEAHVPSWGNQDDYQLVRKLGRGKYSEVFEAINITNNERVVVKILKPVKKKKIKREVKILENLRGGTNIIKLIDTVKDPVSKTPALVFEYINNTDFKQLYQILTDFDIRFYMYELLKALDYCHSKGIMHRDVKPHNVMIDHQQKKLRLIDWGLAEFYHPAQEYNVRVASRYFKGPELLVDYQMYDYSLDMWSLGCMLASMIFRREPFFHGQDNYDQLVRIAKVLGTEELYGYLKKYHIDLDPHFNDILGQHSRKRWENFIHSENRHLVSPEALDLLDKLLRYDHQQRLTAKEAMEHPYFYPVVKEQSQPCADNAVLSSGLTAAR
Chain of Casein kinase II (Homo sapiens, UniProt P19784+P67870+P68400) (P67870 whole entry): as the sequence (P67870 whole entry) above
Chain of Casein kinase II (Homo sapiens, UniProt P19784+P67870+P68400) (P68400 whole entry): as the sequence (P68400 whole entry) above
Chain of Casein kinase II (Homo sapiens, UniProt P19784+P67870+P68400) (P19784 whole entry): as the sequence (P19784 whole entry) above

Structure (SMILES): CCCCCCCCCC(=O)OC[C@H](O)[C@H]1OC(=O)C(O)=C1O
inhibition [1]: 86% | IC50 ([2]; read-out: IC50): 6.1 µM

Structure (SMILES): CCCCCCCC(=O)OC[C@H](O)[C@H]1OC(=O)C(O)=C1O
inhibition [1]: 65% | IC50 ([2]; read-out: IC50): > 50 µM | IC50 ([2]; read-out: pIC50 (converted)): > 50.1 µM

Structure (SMILES): CCCCCCCCCCCCCC(=O)OC[C@H](O)[C@H]1OC(=O)C(O)=C1O
IC50 ([2]; read-out: IC50): > 5.8 µM | IC50 ([2]; read-out: pIC50 (converted)): 5.75 µM

Structure (SMILES): O=C1O[C@H]([C@@H](O)CO)C(O)=C1O
inhibition [1]: 80%

Structure (SMILES): CC1=C(O)[C@@H](C/C(C)=C/CCC(C)/C=C/C=C(\C)CCCc2ccoc2)OC1=O (stereo in doubt; B)
inhibition [3]: Active

Structure (SMILES): CC1=C(O)/C(=C/[C@H](C)CCC/C(C)=C/CCc2coc(Cc3ccoc3)c2)OC1=O [IRCININ 1]
IC50 ([2]; read-out: IC50): 0.8 µM

Structure (SMILES): CC1=C(O)/C(=C/[C@H](C)CC/C=C(/C)CCCc2coc(Cc3ccoc3)c2)OC1=O [IRCININ 2]
IC50 ([2]; read-out: IC50): 2.3 µM

Now from value to molecule, other results behind:

inhibition [3]: Active
Structure (SMILES): CC1=C(O)[C@@H](C/C(C)=C/CCC(C)/C=C/C=C(\C)CCCc2ccoc2)OC1=O (stereo in doubt; A)

IC50 (Casein kinase II [4]): > 100 µM | IC50 (Casein kinase II [5]): > 100 µM | IC50 [6]: > 100 µM | pIC50 [6]: < 4 | IC50 ([2]; read-out: IC50): 2.6 µM | IC50 ([7]; read-out: IC50): > 100 µM | IC50 ([7]; read-out: pIC50 (converted)): > 100 µM | IC50 ([8]; read-out: IC50): > 25 µM | IC50 ([8]; read-out: pIC50 (converted)): > 25.1 µM | IC50 [9]: 1.6 µM
Structure (SMILES): CC1=C(O)[C@@H](C/C(C)=C/CCC(C)/C=C/C=C(\C)CCCc2ccoc2)OC1=O (stereo in doubt; A) [PALINURIN]

IC50 ([2]; read-out: IC50): 1.9 µM
Structure (SMILES): CC1=C(O)[C@@H](C/C(C)=C/CCC(C)/C=C/C=C(\C)CCCc2ccoc2)OC1=O (stereo in doubt; B) [PALINURIN]
Activity [10]: Non-toxic
